Experimental data: patent publication US20240285770A1, “PRECIPITATION SUPPRESSING AGENT” (Nippon Shinyaku Co., Ltd., priority 2021, published 2024)

Legend:
[1] = Precipitation suppression with trehalose: absorbance at 620 nm of antisense oligomer in KCl/NaCl solution assumed to be in urine; assay type: physicochemical; conditions: Example 7: trehalose 45 to 180 mg/mL with PMO Nos. 1, 2, 7, and 8, 37° C., Tables 18 to 21
Experimental: The presence or absence of the precipitation suppressing effects can be determined by adding the antisense oligomer and the precipitation suppressing agent in a solvent simulating urine and examining as described in Examples whether or not the precipitation suppressing agent reduces an increase in absorbance caused by precipitation of the antisense oligomer. For example, after the antisense oligomer and the precipitation suppressing agent are added to the solvent (e.g., 5 minutes later, 10 minutes later, 15 minutes later, 20 minutes later, 25 minutes later, 30 minutes later, 40 minutes later, 50 minutes later, 60 minutes later, 70 minutes later, 80 minutes later, or 90 minutes later), the absorbance can be determined under the conditions of 37° C. At this time, compared to a case of adding no precipitation suppressing agent, it can be determined to be effective in suppressing precipitation when a time until the precipitation is observed (until the increased absorbance at 620 nm is observed) or the absorbance at 620 nm are reduced, for example, by 5% or more, 10% or more, 20% or more, 30% or more, 40% or more, or 50% or more in the case of adding the precipitation suppressing agent. […]

kidney [2] = assay type: in vivo, C57BL/6J male mice; conditions: sucrose 20 to 100 mg/mL co-administered with PMO No. 8 50 mg/mL, 10 mL/kg tail vein, mice
Experimental: The antisense oligomer of PMO No. 8 was dissolved in water for injection comprising 0.9% sodium chloride, and a solution obtained by dissolving sucrose (manufactured by FUJIFILM Wako Pure Chemical Corporation) with physiological saline was added thereto to prepare a dosing solution comprising each of the antisense oligomer and sucrose at the concentrations shown in Tables 12 and 13. The obtained dosing solutions were administered into the tail vein of 6-week-old C57BL/6J male mice (N=3) at the amount of dosing solution shown in Table 12 (10 mL/kg). Next day, some mice to which the antisense oligomer of PMO No. 8 had been administered were subjected to autopsy, and formalin-fixed paraffin-embedded samples of the respective kidneys were prepared. Sections obtained by slicing the samples were subjected to hematoxylin-eosin staining and a histopathological test of the sections was performed.

[3] = Precipitation suppression with sucrose: absorbance at 620 nm of antisense oligomer in KCl/NaCl solution assumed to be in urine; assay type: physicochemical
Experimental: The presence or absence of the precipitation suppressing effects can be determined by adding the antisense oligomer and the precipitation suppressing agent in a solvent simulating urine and examining as described in Examples whether or not the precipitation suppressing agent reduces an increase in absorbance caused by precipitation of the antisense oligomer. For example, after the antisense oligomer and the precipitation suppressing agent are added to the solvent (e.g., 5 minutes later, 10 minutes later, 15 minutes later, 20 minutes later, 25 minutes later, 30 minutes later, 40 minutes later, 50 minutes later, 60 minutes later, 70 minutes later, 80 minutes later, or 90 minutes later), the absorbance can be determined under the conditions of 37° C. At this time, compared to a case of adding no precipitation suppressing agent, it can be determined to be effective in suppressing precipitation when a time until the precipitation is observed (until the increased absorbance at 620 nm is observed) or the absorbance at 620 nm are reduced, for example, by 5% or more, 10% or more, 20% or more, 30% or more, 40% or more, or 50% or more in the case of adding the precipitation suppressing agent. […] The absorbance at 620 nm of the solution thus mixed was measured using a plate reader, Infinite F200 Pro (manufactured by Tecan Group Ltd.) under heating conditions of 37° C. […]

kidney [4] = assay type: in vivo, C57BL/6J male mice; conditions: sucrose 200 mg/mL co-administered with PMO No. 11 130 mg/mL, 20 mL/kg tail vein, mice
Experimental: The antisense oligomer of PMO No. 11 was dissolved in physiological saline to prepare a control dosing solution comprising the antisense oligomer at the concentration shown in Table 14 and comprising no sucrose. Next, the antisense oligomer of PMO No. 11 and sucrose were dissolved in physiological saline to prepare dosing solutions comprising the antisense oligomer and sucrose at the concentrations shown in Table 14. The obtained dosing solutions were administered into the tail vein of 6-week-old C57BL/6J male mice (N=5) at 20 mL/kg. Next day, the mice were subjected to autopsy, and formalin-fixed paraffin-embedded samples of the respective kidneys were prepared. Sections obtained by slicing the samples were subjected to hematoxylin-eosin staining and a histopathological test of the sections was performed. Compared to the mice to which the control dosing solution comprising no sucrose has been administered, it was determined that the precipitation was suppressed in a case where there was improvement in the findings on the histopathological test of the kidney of the mice to which the dosing solution comprising sucrose has been administered.

## OC[C@H]1O[C@H](O[C@H]2O[C@H](CO)[C@@H](O)[C@H](O)[C@H]2O)[C@H](O)[C@@H](O)[C@@H]1O [trehalose]
[1]
  precipitation suppressing effect on antisense oligomers: suppress the precipitation of antisense oligomers

## OC[C@H]1O[C@@](CO)(O[C@H]2O[C@H](CO)[C@@H](O)[C@H](O)[C@H]2O)[C@@H](O)[C@@H]1O [sucrose]
Kidney [2]
  precipitation suppressing effect in kidney (amount of precipitates, basophilic substances in lumens of renal tubules): amount of precipitates decreased according to the concentrations of sucrose
[3]; Example 3: sucrose 45 to 270 mg/mL with PMO Nos. 8, 9, 10, 11, KCl and NaCl, 37° C., Tables 4 to 11
  precipitation suppressing effect on antisense oligomers: suppress the precipitation of antisense oligomers
[3]; Example 6: sucrose 45 to 135 mg/mL with PMO Nos. 1, 2, and 7, 37° C., Tables 15 to 17
  precipitation suppressing effect on antisense oligomers: suppress the precipitation of antisense oligomers
Kidney [4]
  precipitation suppression in kidney (improvement in findings on histopathological test): confirmed to suppress precipitation
